From ChEMBL document CHEMBL1201862, “PubChem BioAssay data set” (2004)
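Dose response: 5 concentrations. Exposure: 48 h. Format: 96-well plates. Endpoint: linear interpolation; highest concentration if not reached. Abbreviation: GI50, concentration required for 50% inhibition of growth.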 The source made the active and inactive calls. Cut-off read from the data, not from the text of the source: active = GI50 up to about 1.1 µM and inactive = higher.

Tests used:
Test in all cases: NCI anticancer screen, dose series, 48 h
HOP-18 = system: HOP-18
DMS-273 = system: DMS-273
LXFL 529 = system: LXFL 529
RXF 631 = system: RXF 631
MDA-MB-435 = system: MDA-MB-435
Hs-578T = system: Hs-578T
MDA-MB-231 = system: MDA-MB-231
BT-549 = system: BT-549

Row | Compound | GI50 (HOP-18) | GI50 (DMS-273) | GI50 (LXFL 529) | GI50 (RXF 631) | GI50 (MDA-MB-435) | GI50 (Hs-578T) | GI50 (MDA-MB-231) | GI50 (BT-549)
1 | Cc1c2cnccc2c(C)c2c1c1ccccc1n2CCCCCCNCc1ccccc1 | 0.547 µM (active) | 1.21 µM (inactive) | – | – | – | – | – | –
2 | O=C1C(Cl)N(c2ccccc2)C1c1c[nH]c2ccccc12 (stereo not given) | – | – | > 100 µM (inactive) | – | – | – | – | –
3 | c1ccc2cc3n[se]nc3cc2c1 | < 0.01 µM (active) | > 100 µM (inactive) | > 100 µM (inactive) | 10.4 µM (inactive) | – | – | – | –
4 | COc1ccc2c(c1)CC1Cc3ccccc3CCN1C2 (stereo not given) | – | – | – | – | 34.2 µM (inactive) | 41.2 µM (inactive) | 6.65 µM (inactive) | > 100 µM (inactive)
5 | COc1nc2ccc(CNc3ccc(C(=O)NC(CCC(=O)O)C(=O)O)cc3)cc2nc1OC (stereo not given) | – | – | – | – | > 100 µM (inactive) | > 100 µM (inactive) | > 100 µM (inactive) | > 100 µM (inactive)
6 | C=C(C(=O)C(=O)Oc1ccc(Cl)cc1)C(=O)c1ccc(C)cc1 | > 100 µM (inactive) | 39.2 µM (inactive) | 27.9 µM (inactive) | 46.2 µM (inactive) | – | – | – | –
7 | C/C(=C1/N=C(c2cc([N+](=O)[O-])ccc2Cl)N(c2ccc(Br)cc2)C1=O)c1cc2ccccc2oc1=O | > 100 µM (inactive) | – | 6.78 µM (inactive) | – | – | – | – | –
8 | O=C1OC2(OC2c2ccc(Cl)cc2)c2ccccc21 (stereo not given) | – | > 100 µM (inactive) | 22.7 µM (inactive) | – | – | – | – | –
9 | C=CCP(=O)(CC=C)C(Cl)Cl | – | – | – | – | – | > 100 µM (inactive) | > 100 µM (inactive) | –
10 | O=[N+]([O-])C(=C/c1ccccc1)/C(=C\c1ccccc1)[N+](=O)[O-] | – | – | – | – | 16.5 µM (inactive) | 56.2 µM (inactive) | 13.2 µM (inactive) | 17.6 µM (inactive)
11 | COc1cc2c(cc1OC)-c1cc3ccccc3c(=O)n1CC2 | – | – | – | – | 22.8 µM (inactive) | 11.4 µM (inactive) | 2.17 µM (inactive) | 29.2 µM (inactive)
12 | NC1(C(=O)O)CCCC1 [CYCLOLEUCINE] | > 625 µM (inactive) | > 625 µM (inactive) | – | – | – | – | – | –
